Measured values reported in patent US12491173B2, “Metabolism-improving agent comprising rare fatty acid” (Noster Inc., priority 2014, dated 2025).

What was measured:
[1] = biological target: T1, fusion protein of PPARα ligand binding region and GAL4 DNA binding region (Homo sapiens, UniProt Q07869); test: PPARα ligand activity, GAL4 fusion luciferase reporter assay in CV-1 cell; format: cell-based; conditions: sample 10 μM and 30 μM, vs ethanol negative control, FIG. 2
T1 construct: expressed in transfected cells; host or cells: CV-1 cell
T1 sequence (Q07869 239-466 limits assumed): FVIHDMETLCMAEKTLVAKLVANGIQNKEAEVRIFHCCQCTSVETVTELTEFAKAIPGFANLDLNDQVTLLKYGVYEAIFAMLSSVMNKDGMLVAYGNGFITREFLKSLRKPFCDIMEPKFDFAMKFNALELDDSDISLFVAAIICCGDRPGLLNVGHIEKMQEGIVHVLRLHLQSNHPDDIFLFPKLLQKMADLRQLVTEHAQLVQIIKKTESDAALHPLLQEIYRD
Procedure: (§1) To evaluate the function of hydroxylated fatty acid and oxo fatty acid and the like, PPARα, γ-activating action was measured first. The measurement was performed in reference to Nobuyuki Takahashi et al., FEBS Letters 514 (2002) p. 315-322, “Dual action of isoprenols from herbal medicines on both PPARgamma and PPARalpha in 3T3-L1 adipocytes and HepG2 hepatocytes.”, the section of Materials and Methods “Reporter plasmids and luciferase assays”. To be specific, PPARα,γ ligand activity was measured by a reporter assay that evaluates binding to a fusion protein of PPAR ligand binding region and GAL4 DNA binding region and target gene activation, based on the expression of luciferase. Specifically, a plasmid comprising a DNA encoding a fusion protein of PPARα,γ ligand binding region and GAL4 DNA binding region and a reporter plasmid wherein luciferase linked to GAL4 bound DNA sequence were introduced into CV-1 cell, a ligand described below was added to the cell, the cell was incubated and the luciferase activity was detected.
(§2) The concentration (10 μM and 30 μM) of the sample was adjusted with ethanol. Ethanol was used as a negative control, and PPARα,γ ligands GW7647 (10 nM) and troglitazone (5 μM) were used as a positive control.

[2] = biological target: T2, fusion protein of PPARγ ligand binding region and GAL4 DNA binding region (Homo sapiens, UniProt P37231); test: PPARγ ligand activity, GAL4 fusion luciferase reporter assay in CV-1 cell; format: cell-based; conditions: sample 10 μM and 30 μM, vs ethanol negative control, FIG. 3
T2 construct: expressed in transfected cells; host or cells: CV-1 cell
T2 sequence (P37231 238-503 limits assumed): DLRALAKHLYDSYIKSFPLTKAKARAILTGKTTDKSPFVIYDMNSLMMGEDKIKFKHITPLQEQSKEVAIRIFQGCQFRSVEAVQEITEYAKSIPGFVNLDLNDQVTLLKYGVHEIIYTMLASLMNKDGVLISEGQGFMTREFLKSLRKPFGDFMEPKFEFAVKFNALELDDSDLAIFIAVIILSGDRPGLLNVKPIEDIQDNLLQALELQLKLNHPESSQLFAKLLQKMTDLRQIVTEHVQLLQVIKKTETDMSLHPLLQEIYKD
Procedure: as §1, §2

PPARα agonist activity (relative luciferase activity) [1] | PPARγ agonist activity (relative luciferase activity) [2] | Structure (SMILES)
strong PPARα agonist activity | – | CCCCCC(=O)CC/C=C\C/C=C\CCCCC(=O)O [13-OXO GLA, 13-oxo-cis-6,cis-9-octadecadienoic acid]
– | strong PPARγ agonist activity | CC/C=C\CC(=O)CC/C=C\CCCCCCCC(=O)O [13-OXO ALA, 13-oxo-cis-9,cis-15-octadecadienoic acid]
